Patent US20070117842A1, “Polymorph of 4-[3-chloro-4-(cyclopropylaminocarbonyl)aminophenoxy]-7-methoxy-6- quinolinecarboxamide and a process for the preparation of the same” (priority 2003, published 2007)
Converted amounts (≈) assume the structure as drawn.

Experiments:
[1] = system: small cell lung cancer cell line H-526 expressing c-Kit kinase; test: Effect on cell proliferation stimulated by SCF; format: cell-based; conditions: Homo sapiens, NCI-H526; H-526 cells, SCF stimulation, 7th day, Cell Counting Kit-8; read-out: IC50 (concentration required for 50% inhibition of the cell proliferation)
Experimental: After culturing, H-526 cells were washed with PBS three times and were suspended in an RPMI1640 medium containing 0.1% BSA (Sigma Corporation) (hereinafter abbreviated as “BSA-RPMI1640”) at 1.0×10^5 cells/ml. […] After color development, the absorbance of each well was determined using a MTP-32 plate reader (Colona Electric Co., Ltd.) at a measuring wavelength of 450 nm and at a reference wavelength of 660 nm. The absorbance of each well was subtracted by the absorbance of the well without addition of SCF, and then the ratio of the absorbance of the well with addition of the test substance to the ratio of the absorbance of the well without addition of the test substance was determined. This ratio was used to calculate the concentration of the test substance required for 50% inhibition of the cell proliferation (IC50).

[2] = Crystal transition between polymorphs in heated suspension; format: physicochemical; conditions: 60° C., 3 hours, listed as polymorph (B)
Experimental: These suspensions were filtered to collect 4-(3-chloro-4-(cyclopropylaminocarbonyl)aminophenoxy)-7-methoxy-6-quinolinecarboxamide (184 to 266 mg).
These suspensions were filtered to collect 4-(3-chloro-4-(cyclopropylaminocarbonyl)aminophenoxy)-7-methoxy-6-quinolinecarboxamide (141 to 256 mg).

[3] = Solubility test (pH 3, Britton Robinson buffer); format: physicochemical; conditions: for solubility (concentration in filtrate): pH 3 Britton Robinson buffer, 25-26° C.; for pH of the filtrate: solubility test
Experimental: (Solubility Test) The solubilities (pH 3) of the crystals obtained in Examples 1d and 2d were evaluated by the following method. About 3 mg of the crystals obtained in Examples 1d and 2d were weighed and each of them was put in a 10 mL screw-capped transparent test tube. 5 mL of a buffer solution (Britton Robinson buffer, pH 3.091, ionic strength I=0.3) was added to each of the test tubes to prepare the test solutions. The test tubes were wrapped with aluminum foil to shield from light, and shaken by a shaker (MS-1 Iuchi Seieido) in the following conditions. Temperature: 25-26° C. (a temperature in a laboratory) Shaking frequency: 150 times/minute Shaking time: 3 hours and 5 hours Respective sample solutions after shaking were filtered ([…], Sample LCR13-LG, Millipore Co.), and each 1 mL of the initial filtrate was discarded. Each of accurately pipetted 1 mL of the filtrates was put in a 10 mL test tube, to which accurately pipetted 1 mL of a mixed solution of water/acetonitrile (1:1 (v/v)) was added to prepare a solution for the HPLC analysis. The HPLC conditions were as follows. A standard solution for the HPLC analysis were prepared as follows. About 10 mg of the crystals obtained in Example 2d was accurately weighed, to which a mixed solution of water/acetonitrile/ammonium acetate (100:100:0.1, v/v/w) was added to give accurate 100 mL to prepare a stock standard solution. Accurately pipetted 5 mL of the stock control solution was added with a mixed solution of water/acetonitrile/ammonium acetate (100:100:0.1, v/v/w) to give accurate 25 mL to prepare the standard solution for the HPLC analysis. Regarding a blank solution, a mixed solution of water/acetonitrile/ammonium acetate (100:100:0.1, v/v/w) was used. The standard solution and respective filtrates were analyzed by HPLC to measure concentrations (mg/mL) of 4-(3-chloro-4-(cyclopropylaminocarbonyl)aminophenoxy)-7-methoxy-6-quinolinecarboxamide in respective filtrates according to the following equation. Concentration (mg/mL)=(Concentration in the standard solution, mg/mL)×[(Peak area in each filtrate)×2/(Peak area in the standard solution)] As is evident from the results, there was no significant difference in the solubility at pH 3 between the polymorphs (A) and (B).

[4] = Hygroscopicity test by microbalance method; format: physicochemical; conditions: 25° C.
Experimental: (Hygroscopicity Test by Microbalance Method)
The higroscopicities of the crystals obtained in Examples 1d and 2d were evaluated by microbalance method. An apparatus and conditions employed were as follows.
Apparatus: Integrated microbalance system MB 300W (VTI Co.)
Relative humidity step: 5 to 95 by 5
Equilibrium Criteria: 0.0050 wt % (5 minutes)
Maximum equilibrium time: 120 minutes
The results of measuring the higroscopicities of the crystals obtained in Examples 1d and 2d by microbalance method are shown in FIGS. 13 and 14, respectively. As is seen from the results shown in these figures, within the range of 5-95% of relative humidity, the polymorph (A) gave a weight change of 1% and the polymorph (B) gave that of 1.5%.

[5] = Solid stability test (1 month storage; appearance, water content, HPLC purity and residual ratio, powder X-ray diffraction); format: physicochemical; conditions: for impurity / remaining percent: HPLC; for water content: Karl Fischer method
Experimental: (Solid Stability Test) The solid stabilities of the crystal obtained in Examples 1d and 2d were evaluated. […] The water content measurement and the powder X-ray diffraction measurement were carried out by the same method as described in the hygroscopicity test by the dessiccator method. Further, the purity test and the residual ratio (percent) measurement by HPLC were carried out by the same method as described above, except for the condition that the column temperature was 35° C. In this connection, the residual ratio (percent) (measurement by HPLC) was defined as stated bellow by using the crystal stored under the condition C as the standard and its solution as the standard solution. Remaining percent (%)=[(Peak area of the sample solution)×(Weighed amount of the standard: in terms of a dehydrate (mg))]×100/[(Peak area of the standard solution)×(Weighed amount of the sample: in terms of a dehydrate (mg))] [table]

[6] = Hygroscopicity test by a desiccator method; format: physicochemical; conditions: for water content: Karl Fischer method
Experimental: (Hygroscopicity Test by a Desiccator Method) The hygroscopicities of the crystals obtained in Examples 1d and 2d were evaluated by a desiccator method. […] Weighing bottles (in opened caps) were used for containers, and MIR-552 (Sanyo) was used for a storage apparatus. [table] The powder X-ray diffraction analysis was carried out under the following conditions. The water content was measured (by the Karl Fischer method) by using the following apparatus and reagents.

[7] = condition C: −20° C., brown screw vial, closed, 1 month
[8] = condition D: 25° C., 1000lx, shading with aluminum foil, quartz tube, closed, 1 month
[9] = condition E: 25° C., 1000lx, quartz tube, closed, 1 month
[10] = condition F: 40° C., 75% RH, brown screw vial, open, 1 month
[11] = condition G: 60° C., brown screw vial, closed, 1 month
[12] = condition A: 25° C., 75% relative humidity, stored 1 week
[13] = condition B: 25° C., 93% relative humidity, stored 1 week
[14] = desiccator method, 25° C., 75% or 93% relative humidity, 1 week

CCCNC(=O)Nc1ccc(Oc2ncnc3cc(OC)c(OC)cc23)cc1Cl [KRN633, reference compound]
IC50 [1]: 301 nM

COc1cc2nccc(Oc3ccc(NC(=O)NC4CC4)c(Cl)c3)c2cc1C(N)=O [Example 2d, 4-(3-chloro-4-(cyclopropylaminocarbonyl)aminophenoxy)-7-methoxy-6-quinolinecarboxamide]
crystal form after suspension ([2]; 300 mg in DMSO (1.7 mL) and 33% (v/v) acetone-water (0.17, 0.34, 0.51 or 0.85 mL)): all of them remained the polymorph (B)
dissolution in DMSO ([2]; 300 mg in DMSO (1.7 mL), without 33% acetone-water): most of the polymorph (B) dissolved
solubility (concentration in filtrate) ([3]; shaking time 3 hours): 62 µg/mL (≈ 145 µM)
solubility (concentration in filtrate) ([3]; shaking time 5 hours): 54 µg/mL (≈ 127 µM)
pH of the filtrate ([3]; shaking time 3 hours): 3.109
pH of the filtrate ([3]; shaking time 5 hours): 3.106
hygroscopicity ([4]; microbalance method, 5-95% relative humidity): no perceivable hygroscopisity
weight change ([4]; within the range of 5-95% of relative humidity, listed as polymorph (B)): 1.5%
appearance [5, 7]: pale brownish
impurity [5, 7]: 1.55%
remaining percent ([5]; condition C: −20° C., brown screw vial, closed, 1 month, condition C is the standard): (100) %
water content [5, 7]: 0.4 wt %
appearance [5, 8]: pale brownish
impurity [5, 8]: 1.54%
remaining percent ([5]; condition D: 25° C., 1000lx, shading with aluminum foil, quartz tube, closed, 1 month, vs condition C standard): 101.8%
water content [5, 8]: 0.3 wt %
appearance [5, 9]: pale brownish
impurity [5, 9]: 1.55%
remaining percent ([5]; condition E: 25° C., 1000lx, quartz tube, closed, 1 month, vs condition C standard): 100.5%
water content [5, 9]: 0.3 wt %
appearance [5, 10]: pale brownish
impurity [5, 10]: 1.54%
remaining percent ([5]; condition F: 40° C., 75% RH, brown screw vial, open, 1 month, vs condition C standard): 100.4%
water content [5, 10]: 0.4 wt %
appearance [5, 11]: pale brownish
impurity [5, 11]: 1.53%
remaining percent ([5]; condition G: 60° C., brown screw vial, closed, 1 month, vs condition C standard): 101.3%
water content [5, 11]: 0.5 wt %
appearance ([5]; prior to storage): pale brownish
impurity ([5]; prior to storage): 1.53%
water content ([5]; prior to storage): 0.5 wt %
change on storage (solid stability) ([5]; stored for 1 month, any storage conditions): no change was observed
appearance [6, 12]: pale brownish
water content [6, 12]: 0.5 wt %
appearance [6, 13]: pale brownish
water content [6, 13]: 0.5 wt %
crystal transition [6, 14]: no perceivable crystal transition
hygroscopicity [6, 14]: no perceivable hygroscopicitiy
appearance ([6]; prior to storage): pale brownish
water content ([6]; prior to storage): 0.5 wt %
